Laboratory results from ChEMBL document CHEMBL1157297, “Daphmanidins E and F, alkaloids from Daphniphyllum teijsmannii” (2006).

Tests used:
Aorta [1] = test: Vasorelaxant activity against norepinephrine-induced contraction in Wistar rat thoracic aorta at 10 uM; format: functional; set-up: scale not given: the % may be the effect or the level left
Aorta [2] = test: Vasorelaxant activity against norepinephrine-induced contraction in Wistar rat thoracic aorta at 100 uM; format: functional; set-up: scale not given: the % may be the effect or the level left

Row | Structure (SMILES) | Activity (Aorta [1]) [%] | Activity (Aorta [2]) [%]
1 | COC(=O)[C@@H]1C[C@]23C4=NC[C@@H](C)[C@]45CC[C@@]2(COC(C)=O)[C@H](CCC2=C3[C@@H]1CC2)[C@H]5O [DAPHMANIDIN A] | 37.5 | 
2 | COC(=O)C1=C2CC[C@]34CC[C@@H]5[C@@H](O)[C@@]67CC[C@]5(COC(C)=O)[C@](C1)(C6=NC[C@H]7C)[C@]23O4 [DAPHMANIDIN F] | 45.8 | 
3 | COC(=O)C1=C2CCC3=C2[C@@]2(C1)C1=NC[C@@H](C)[C@]14CC[C@@]2(COC(C)=O)[C@H](CC3)[C@H]4O [DAPHMANIDIN E] |  | 34.9
